Reference: US6225494A, “Trisubstituted phenyl derivatives having retinoid agonist or inverse agonist type biological activity” (Allergan Sales, Inc., priority 1999, dated 2001)

Assays:
Test in all cases: RAR-P-GR holoreceptor transactivation assay (PGR assay)
Assay type in all cases: cell-based
RARγ = molecular target: T1, RARγ (Homo sapiens, UniProt P13631, E108G/G109S/G112V); conditions: for EC50: CV-1 cells, luciferase reporter, 18 hours; for Emax: relative to all-trans-retinoic acid, read-out: % Efficiency RARγ
T1 construct: expressed in transfected cells; host or cells: CV-1
T1 sequence (P13631 1-454 E108G/G109S/G112V): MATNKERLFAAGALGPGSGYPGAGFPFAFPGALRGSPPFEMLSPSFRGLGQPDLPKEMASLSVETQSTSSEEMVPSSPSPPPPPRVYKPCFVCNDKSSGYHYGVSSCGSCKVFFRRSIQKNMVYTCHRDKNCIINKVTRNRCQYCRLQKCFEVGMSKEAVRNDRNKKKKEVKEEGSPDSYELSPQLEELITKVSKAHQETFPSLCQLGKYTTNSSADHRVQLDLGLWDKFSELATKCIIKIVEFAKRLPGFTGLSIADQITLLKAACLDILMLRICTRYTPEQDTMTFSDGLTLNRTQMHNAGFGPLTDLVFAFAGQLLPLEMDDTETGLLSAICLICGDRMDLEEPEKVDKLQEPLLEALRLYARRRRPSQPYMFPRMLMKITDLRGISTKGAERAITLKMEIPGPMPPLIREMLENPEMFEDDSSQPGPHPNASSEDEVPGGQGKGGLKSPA
T1 sequence (P19793 1-462 partner): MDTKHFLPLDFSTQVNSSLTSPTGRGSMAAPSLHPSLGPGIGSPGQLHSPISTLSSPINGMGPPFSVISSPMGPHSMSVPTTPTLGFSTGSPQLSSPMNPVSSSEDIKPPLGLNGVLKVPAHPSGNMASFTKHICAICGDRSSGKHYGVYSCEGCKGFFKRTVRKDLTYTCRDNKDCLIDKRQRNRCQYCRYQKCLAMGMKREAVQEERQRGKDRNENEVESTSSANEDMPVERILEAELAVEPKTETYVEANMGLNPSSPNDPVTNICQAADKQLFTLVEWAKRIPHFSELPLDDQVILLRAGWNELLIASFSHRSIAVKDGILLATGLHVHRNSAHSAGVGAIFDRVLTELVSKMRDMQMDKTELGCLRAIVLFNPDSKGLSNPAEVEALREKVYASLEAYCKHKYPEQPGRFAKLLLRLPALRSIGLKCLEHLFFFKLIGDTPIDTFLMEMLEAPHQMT
Method: (§1) Still another transactivation assay, the "PGR assay" is described in the publication KIein et al. J. Biol. Chem. 271, 22692-22696 (1996) which is expressly incorporated herein by reference, and a detailed description is also provided below. The results of the PGR assay are also expressed in EC50 numbers (nanomolar concentration).
(§2) RAR-P-GR Holoreceptor Transactivation Assay
(§3) CV-1 cells (4×10^5 cells/well) were transiently transfected with the luciferase reporter plasmid MTV-4(R5G)-Luc (0.7 μg/well) containing four copies of the R5G retinoid DNA response element along with the RXRα expression plasmid pRS-hRXRα (0.1 μg/well) and one of the RAR-P-GR expression plasmids (0.05 μg/well) in 12 well plates via calcium phosphate precipitation Chen et al. (1987) Mol. Cell. Biol. 7, 2745-2752, as described by Vein et al. in J. Biol. Chem. 271, 22692, referenced above. The three different RAR-P-GR expression plasmids, pRS-RARα-P-GR, pcDNA3-RARβ-P-GR and pcDNA3-RARγ-P-GR, express RARα, RARβ and RARγ receptors, respectively, which contain modified DNA binding domains such that their "P-boxes" have been altered to that of the glucocorticoid receptor. These RAR-P-GR receptors bind to DNA as heterodimeric complexes with RXR. Specifically, the RAR-P-GR receptors bind retinoic acid response elements designated R5G, comprised of two RAR half sites (nucleotide sequence 5'-GGTTCA-3') separated by 5 base pairs in which the 3'-half site has been modified to that of a glucocorticoid receptor half site, 5'-AGAACA-3'. To allow for various in transfection efficiency a β-galactosidase expression plasmid (0.01 ug/well) was used as an internal control. Alternatively, the assay was performed in a 96-well microtiter plate format (5000 cells/well) in a manner which was identical to that described above except 1/5 of the amount of the DNA-calcium phosphate precipitant (20 μl instead of 100 μl) was applied to each well. Eighteen hours after introduction of the DNA precipitants, cells were rinsed with phosphate buffered saline (PBS) and fed with D-MEM (Gibco-BRL) containing 10% activated charcoal extracted fetal bovine serum (Gemini Bio-Products). After rinsing with PBS, cells were lysed and luciferase activity was measured as previously described in de Wet et al. (1987) Mol. Cell. Biol. 7, 725-737. Luciferase values represent the mean±SEM of triplicate determinations normalized to β-galactosidase activity.

RARβ = molecular target: T2, RARβ (Homo sapiens, UniProt P10826, E106G/G107S/G110V); conditions: for EC50: CV-1 cells, luciferase reporter, 18 hours; for Emax: relative to all-trans-retinoic acid, read-out: % Efficiency RARβ
T2 construct: expressed in transfected cells; host or cells: CV-1
T2 sequence (P10826 1-448 isoform P10826-2 E99G/G100S/G103V): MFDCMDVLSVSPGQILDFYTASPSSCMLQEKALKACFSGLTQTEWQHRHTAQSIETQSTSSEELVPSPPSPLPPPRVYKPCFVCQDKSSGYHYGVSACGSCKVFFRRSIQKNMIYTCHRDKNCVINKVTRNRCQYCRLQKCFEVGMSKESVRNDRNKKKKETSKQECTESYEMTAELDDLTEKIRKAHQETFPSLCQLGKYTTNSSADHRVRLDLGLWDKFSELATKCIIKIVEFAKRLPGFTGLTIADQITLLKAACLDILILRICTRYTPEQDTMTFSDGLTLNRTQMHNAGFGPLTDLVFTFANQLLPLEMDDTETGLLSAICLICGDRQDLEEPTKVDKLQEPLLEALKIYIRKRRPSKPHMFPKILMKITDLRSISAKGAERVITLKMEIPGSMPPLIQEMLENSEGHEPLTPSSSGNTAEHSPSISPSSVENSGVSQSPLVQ
T2 sequence (P19793 1-462 partner): T1 sequence (P19793 1-462 partner)
Method: as §1, §2, §3

RARα = molecular target: T3, RARα (Homo sapiens, UniProt P10276, E106G/G107S/G110V); conditions: for EC50: CV-1 cells, luciferase reporter, 18 hours; for Emax: relative to all-trans-retinoic acid, read-out: % Efficiency RARα
T3 construct: expressed in transfected cells; host or cells: CV-1
T3 sequence (P10276 1-462 E106G/G107S/G110V): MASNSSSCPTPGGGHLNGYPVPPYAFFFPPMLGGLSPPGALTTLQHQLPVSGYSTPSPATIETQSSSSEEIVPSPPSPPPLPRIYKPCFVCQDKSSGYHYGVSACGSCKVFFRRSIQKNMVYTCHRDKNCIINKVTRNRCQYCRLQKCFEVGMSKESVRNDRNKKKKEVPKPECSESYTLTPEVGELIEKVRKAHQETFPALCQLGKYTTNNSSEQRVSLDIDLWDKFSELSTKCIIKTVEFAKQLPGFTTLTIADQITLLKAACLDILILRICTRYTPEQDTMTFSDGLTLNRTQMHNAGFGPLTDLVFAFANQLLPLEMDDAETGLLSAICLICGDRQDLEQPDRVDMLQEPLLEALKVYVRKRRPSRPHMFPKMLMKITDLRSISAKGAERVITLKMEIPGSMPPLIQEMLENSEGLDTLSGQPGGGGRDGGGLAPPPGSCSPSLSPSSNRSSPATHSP
T3 sequence (P19793 1-462 partner): T1 sequence (P19793 1-462 partner)
Method: as §1, §2, §3

EC50 (RARγ) [µM]	Emax (RARγ) [%]	EC50 (RARβ) [µM]	Emax (RARβ) [%]	EC50 (RARα) [µM]	Emax (RARα) [%]	Compound
> 10	1	> 10	3	> 10	1	Cc1ccc(C(=O)c2cc(C#Cc3ccc(C(=O)O)cc3)ccc2O)cc1 [Compound 5, 4-[[4'-hydroxy-3'-(4"-methyl)benzoyl]phenylethynyl]benzoic acid]
> 10	3	> 10	3	> 10	1	C=C(c1ccc(C)cc1)c1cc(C#Cc2ccc(C(=O)O)cc2)ccc1O [Compound 8, 4-[[4'-Hydroxy-3'-(1-p-tolyl)vinyl]phenylethynyl]benzoic acid]
> 10	5	> 10	3	> 10	1	C=C(c1ccc(C)cc1)c1cc(C#Cc2ccc(C(=O)O)cc2)ccc1OCOC [Compound 9, 4-[[4'-methoxymethoxy-3'-(1-p-tolyl)vinyl]phenylethynyl]benzoic acid]
> 10	5	> 10	1	> 10	0	C=C(c1ccc(C)cc1)c1cc(C#Cc2ccc(C(=O)O)cc2)ccc1OC [Compound 12, 4-[[4'-Methoxy-3'-(1-p-tolyl)vinyl]phenylethynyl]benzoic acid]
> 10	0	> 10	0	> 10	0	COCOc1ccc(C#Cc2ccc(C(=O)O)cc2)cc1C(=O)c1ccc(C)cc1 [Compound 13]
> 10	1	> 10	5	> 10	9	C=C(c1ccc(C)cc1)c1cccc(C#Cc2ccc(C(=O)O)cc2)c1 [Compound 20, 4-[[3'-(1-p-Tolyl)vinyl]phenylethynyl]benzoic acid]
> 10	0	> 10	0	> 10	0	COc1ccc(C#Cc2ccc(C(=O)O)cc2)cc1C(=O)c1ccc(C)cc1 [Compound 22, 4-[[4'-methoxy-3'-(4"-methyl)benzoyl]phenylethynyl]benzoic acid]
> 10	0	> 10	2	> 10	0	Cc1ccc(C(=O)c2cc(C#Cc3ccc(C(=O)O)c(F)c3)c(C)cc2O)cc1 [Compound 25, 4-[[4'-Hydroxy-2'-methyl-5'-(4"-methyl)benzoyl]phenylethynyl]-2-fluoro-benzoic acid]
> 10	1	> 10	0	> 10	0	C=C(c1ccc(C)cc1)c1cc(C#Cc2ccc(C(=O)O)cc2)ccc1OC(C)C [Compound 28, 4-[[4'-Isopropoxy-3'-(1-p-tolyl)vinyl]phenylethynyl]benzoic acid]
> 10	1	> 10	0	> 10	0	C=C(c1ccc(C)cc1)c1cc(C#Cc2ccc(C(=O)O)c(F)c2)ccc1OC(C)C [Compound 29, 4-[[4'-Isopropoxy-3'-(1-p-tolyl)vinyl]phenylethynyl]-2-fluoro-benzoic acid]
> 10	2	> 10	4	> 10	0	C=C(c1cccc(C)c1)c1cc(C#Cc2ccc(C(=O)O)cc2)ccc1OC(C)C [Compound 31, 4-[[4'-Isopropoxy-3'-(1-m-tolyl)vinyl]phenylethynyl]benzoic acid]
